Laboratory results reported in ChEMBL document CHEMBL1127907, “Design of a potent 5-HT4 receptor agonist with nanomolar affinity” (Bioorg Med Chem Lett, 1994).
pEC50, pIC50, pKi: −log10 of the molar value.

Key:
[1] = molecular target: T1, 5-hydroxytryptamine receptor 4 (Cavia porcellus, UniProt O70528); assay: 5-hydroxytryptamine 4 receptor agonist activity as increased response to electrical stimulation in guinea pig ileum; type: functional, tissue-based
[2] = molecular target: T2, 5-hydroxytryptamine receptor 4 (Rattus norvegicus, UniProt Q62758); assay: Binding affinity against 5-hydroxytryptamine 4 receptor using [3H]GR-113808 as radioligand in rat striatum; type: tissue-based
T2 sequence (Q62758 whole entry): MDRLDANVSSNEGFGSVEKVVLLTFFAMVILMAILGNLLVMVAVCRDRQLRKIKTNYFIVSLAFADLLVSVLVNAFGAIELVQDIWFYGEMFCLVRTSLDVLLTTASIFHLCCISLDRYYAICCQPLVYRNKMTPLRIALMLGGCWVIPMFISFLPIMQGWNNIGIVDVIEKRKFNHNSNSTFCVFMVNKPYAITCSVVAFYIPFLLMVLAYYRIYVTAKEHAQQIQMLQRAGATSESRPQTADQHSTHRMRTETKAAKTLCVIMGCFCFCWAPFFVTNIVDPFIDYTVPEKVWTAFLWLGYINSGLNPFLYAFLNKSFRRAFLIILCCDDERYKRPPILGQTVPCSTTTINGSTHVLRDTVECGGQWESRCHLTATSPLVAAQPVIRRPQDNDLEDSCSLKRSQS

[3] = molecular target: 5-hydroxytryptamine receptor 4 (Cavia porcellus) (UniProt O70528); assay: 5-hydroxytryptamine 4 receptor agonist activity as percent maximum 5-HT effect in response to electrical stimulation in male guinea pig ileum; type: functional, tissue-based
5-hydroxytryptamine receptor 4 (Cavia porcellus), sequence (O70528 whole entry): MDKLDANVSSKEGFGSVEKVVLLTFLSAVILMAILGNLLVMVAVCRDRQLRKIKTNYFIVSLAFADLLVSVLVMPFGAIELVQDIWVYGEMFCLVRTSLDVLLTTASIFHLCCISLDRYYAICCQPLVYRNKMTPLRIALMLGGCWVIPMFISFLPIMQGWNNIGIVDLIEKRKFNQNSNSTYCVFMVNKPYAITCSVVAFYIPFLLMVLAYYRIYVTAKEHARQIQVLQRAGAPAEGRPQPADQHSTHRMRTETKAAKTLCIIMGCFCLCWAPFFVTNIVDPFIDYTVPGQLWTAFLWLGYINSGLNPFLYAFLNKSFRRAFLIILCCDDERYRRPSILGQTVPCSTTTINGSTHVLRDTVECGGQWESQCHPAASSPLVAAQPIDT

[4] = molecular target: T1, 5-hydroxytryptamine receptor 4; assay: 5-hydroxytryptamine 4 receptor antagonist activity expressed as the concentration which produced a 50% reduction of 5-HT induced contraction in guinea pig ileum; type: functional, tissue-based
[5] = molecular target: T3, Serotonin 3 (5-HT3) receptor (Rattus norvegicus, UniProt P35563+Q9JJ16); assay: Binding affinity against 5-hydroxytryptamine 3 receptor using [3H]BRL-43694 in rat posterior cortex; type: tissue-based
T3 sequence (P35563 whole entry): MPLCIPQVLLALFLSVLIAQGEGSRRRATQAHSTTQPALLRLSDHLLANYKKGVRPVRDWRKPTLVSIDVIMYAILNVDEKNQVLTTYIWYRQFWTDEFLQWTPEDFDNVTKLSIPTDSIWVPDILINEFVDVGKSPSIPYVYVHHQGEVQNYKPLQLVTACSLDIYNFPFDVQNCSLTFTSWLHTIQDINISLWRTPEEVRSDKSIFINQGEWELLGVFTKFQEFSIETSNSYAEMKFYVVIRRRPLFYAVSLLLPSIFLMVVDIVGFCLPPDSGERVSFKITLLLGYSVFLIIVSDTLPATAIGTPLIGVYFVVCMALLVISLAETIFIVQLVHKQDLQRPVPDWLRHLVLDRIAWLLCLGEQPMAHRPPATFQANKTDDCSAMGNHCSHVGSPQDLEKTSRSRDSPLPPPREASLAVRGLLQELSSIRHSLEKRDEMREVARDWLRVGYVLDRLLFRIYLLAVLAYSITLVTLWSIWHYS
T3 sequence (Q9JJ16 whole entry): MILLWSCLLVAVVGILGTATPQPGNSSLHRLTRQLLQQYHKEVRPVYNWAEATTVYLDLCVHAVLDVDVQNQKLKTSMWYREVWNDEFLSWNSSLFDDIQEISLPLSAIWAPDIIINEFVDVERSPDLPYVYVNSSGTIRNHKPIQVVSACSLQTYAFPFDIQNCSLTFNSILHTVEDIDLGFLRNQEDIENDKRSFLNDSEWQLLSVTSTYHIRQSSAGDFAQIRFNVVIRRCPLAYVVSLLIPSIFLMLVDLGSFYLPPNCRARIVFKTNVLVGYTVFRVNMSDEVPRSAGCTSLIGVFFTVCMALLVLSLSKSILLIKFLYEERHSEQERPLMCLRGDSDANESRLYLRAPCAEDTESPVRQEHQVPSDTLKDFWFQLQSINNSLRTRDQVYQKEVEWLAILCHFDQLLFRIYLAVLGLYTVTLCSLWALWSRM

[6] = molecular target: T1, 5-hydroxytryptamine receptor 4; assay: 5-hydroxytryptamine 4 receptor antagonist activity expressed as the concentration which produced a 50% reduction of 5-HT induced contraction in guinea pig ileum; Not evaluable; type: functional, tissue-based
[7] = molecular target: T2, 5-hydroxytryptamine receptor 4; assay: 5-hydroxytryptamine 4 receptor agonist activity was determined by the relaxation of the carbachol-contracted rat esophageal tunica muscularis mucosae; type: functional

T1 sequence (O70528 whole entry): as the sequence (O70528 whole entry) above

Compound | pEC50 [1] | pKi [2] | Activity [3] | pIC50 [4] | pKi [5] | pIC50 [6] | pIC50 [7]
COc1cc(N)c(Cl)cc1C(=O)OC1CCN(C)CC1 | 6.96 | 7.64 | 53% | 7.22 | 7.14 | – | –
NCCc1c[nH]c2ccc(O)cc12 | – | – | 100% | – | – | – | –
CCN1CCC(OC(=O)c2cc(Cl)c(N)cc2OC)CC1 | 7.66 | 7.99 | 60% | – | 6.93 | – | –
CCN(CC)CCOC(=O)c1cc(Cl)c(N)cc1OC | < 6.00 | 8.28 | – | – | 6.69 | 7.11 | –
COc1cc(N)c(Cl)cc1C(=O)OC1CC2CCC(C1)N2C (centres undefined) | 7.57 | 7.19 | 54% | – | 8.49 | – | –
CCN(CC)CCNC(=O)c1cc(Cl)c(N)cc1OC [METOCLOPRAMIDE] | – | – | – | – | 6.35 | – | –
CCN1CCCC(OC(=O)c2cc(Cl)c(N)cc2OC)C1 (centres undefined) | 7.36 | 7.46 | 79% | – | – | – | –
COc1cc(N)c(Cl)cc1C(=O)NC1CN2CCC1CC2 (centres undefined) [ZACOPRIDE] | 6.59 | 6.12 | – | – | 9.15 | – | –
COc1cc(N)c(Cl)cc1C(=O)OCCN1CCCCC1 | – | 8.97 | 80% | – | 6.11 | – | 8.62
